Assay results published in patent US20140275509A1, “MULTIFUNCTIONALIZED MATERIALS” (Nanoimmunotech SRL, priority 2011, published 2014).

System: Human tumor cells Hmy-2 (HLA-DR class II positive B cell line)
Assay: Recognition, internalization, labeling and drug release
Format: cell-based
Conditions: drug transported into the cell by cyclodextrin on the BH1/fluorophore/penetrating peptide gold nanoparticles, 1:1:1:1 molar ratio
From the text: The antibody described above, BH1 functionalized with the PNA-B sequence, has been conjugated to 13 nm gold nanoparticles previously functionalized with the PNA-A sequence by means of the complementary strand hybridization technique. […] On the other hand and due to the possibility of producing a multifunctionalization by using the presented technology, molecules of a cell-penetrating peptide with the DNA-B sequence could further be bound to the nanostructures by hybridization, as occurred with BH1 to the nanoparticles. Furthermore and continuing with the possibility of producing multifunctionalization by using the presented technology, fluorescent labeling molecules functionalized with the DNA-B sequence could be bound to the previous nanostructures by hybridization, as occurred with the BH1 to the nanoparticles. […] To conclude and continuing with multifunctionalization allowed by the presented technology, molecules of cyclodextrin functionalized with the DNA-B sequence could be bound to the previous nanostructures by hybridization as occurred with BH1, fluorophore and penetrating peptide to the nanoparticles, using a 1:1:1:1 molar ratio, respectively.

CC1(C)CCC2=C(O1)c1ccccc1C(=O)C2=O [β-Lapachone]
cell death: selectively induced cell death
